According to patent US9907783B2, “Methods of treating skin conditions using cyclolignan compounds” (m. Alphabet 2, L.L.C., priority 2013, dated 2018):

Test system: actinic keratoses
Test: Randomized, blinded patient study of topical picropodophyllin solution for actinic keratoses (lesion count in treatment area)
Type: in vivo, patients
Details: topical twice daily for 1 week
Procedure: To date, 56 patients have been studied to determine the efficacy of picropodophyllin in treating actinic keratoses. The patients were randomized into four groups, and the patients in each group were treated with a solution containing either 0.5%, 1.25%, or 2.0% picropodophyllin (w/v) in propylene glycol, or a placebo constituting only the vehicle propylene glycol. The picropodophyllin solution was prepared in 100% propylene glycol solution. The solutions were prepared aseptically following GMP protocols. The affected areas of the body variously included the scalp, face, arms, and legs. Without knowing which one of the four solutions they were applying, the subjects self-applied one of the solutions to the skin. After initial application, the subjects gently massaged the solutions into their skin. This was done twice daily for 1 week. Lesions (actinic keratosis) were palpated and visualized by a trained lesion counter who is a board certified dermatologist. The same investigator evaluated each subject at each visit for consistency. The subjects were evaluated at baseline, day 3, day 7, day 14, day 28, day 56 and day 90. Within the treatment area, the number of lesions were counted, regardless of their size. The change in the number of lesions (% decline from baseline) within the treatment area was calculated and the results are shown in the table below: […]

## COc1cc([C@@H]2c3cc4c(cc3[C@H](O)[C@H]3COC(=O)[C@@H]23)OCO4)cc(OC)c1OC [PPP, picropodophyllin]
0.50% PPP w/v in propylene glycol, 28 days
  % Decline from Baseline (number of lesions in treatment area): −56^AB %
0.50% PPP w/v in propylene glycol, 56 days
  % Decline from Baseline (number of lesions in treatment area): −82^AB %
0.50% PPP w/v in propylene glycol, 90 days
  % Decline from Baseline (number of lesions in treatment area): −90^AB %
1.25% PPP w/v in propylene glycol, 28 days
  % Decline from Baseline (number of lesions in treatment area): −53^AB %
1.25% PPP w/v in propylene glycol, 56 days
  % Decline from Baseline (number of lesions in treatment area): −73^AB %
1.25% PPP w/v in propylene glycol, 90 days
  % Decline from Baseline (number of lesions in treatment area): −65^AB %
2.00% PPP w/v in propylene glycol, 28 days
  % Decline from Baseline (number of lesions in treatment area): −17%
2.00% PPP w/v in propylene glycol, 56 days
  % Decline from Baseline (number of lesions in treatment area): −55^AB %
2.00% PPP w/v in propylene glycol, 90 days
  % Decline from Baseline (number of lesions in treatment area): −84^AB %
